# Source: US20070014739A1, “Compositions and methods for controlling biofilms and bacterial infections” (priority 2005, published 2007)
# What was measured:
# E. coli UTI89[pCOMGFP] = experiment: Bladder colonization (CFU) in infected mice, oral treatment; assay type: in vivo, Escherichia coli; conditions: C3H/HeN mice, approximately 2 days after inoculation
# Description: Briefly, E. coli UTI89[pCOMGFP] was prepared after retrieval from frozen stocks by inoculating appropriately in LB medium statically for approximately 20 hours. Cells were harvested and suspended in 1 ml of PBS. Cells were diluted appropriately to achieve approximately 10^7 CFU input into C3H/HeN mice.
# Mice were deprived of water for approximately two hours. All mice were anesthetized with isofluorane. Urine was dispelled from the bladders and an inoculum of approximately 10^7 CFU of E. coli were introduced into the bladders as indicated above. Treatments of sulfamethoxazole and trimethoprim (SMZ/TMP), asiatic acid, and combination of SMZ/TMP and asiatic acid was evaluated.
# 3 mice received asiatic acid by orally at approximately 25 milligram per kilogram twice a day beginning one day prior to infection each day during the experiment. Asiatic acid was prepared in 50% Labrasol®. 5 mice received SMZ/TMP in their drinking water at a concentration of 270 micrograms of SMZ per millilter and 54 micrograms of TMP per milliliter immediately after infection throughout the experiment. 5 mice received asiatic acid and SMZ/TMP in combination dosed according to the individual dosing groups. The experiment was performed for approximately 2 days after inoculation. […] The bladders were removed and colony forming units (CFU) were determined as previously described by Justice, S. et al.
# [1] = tested on: Haemophilus influenzae (ATCC 10211); experiment: Antibacterial effect (MIC), NCCLS procedures; assay type: cell-based; conditions: ATCC10211, studied at 64 μg/mL, read-out: MIC (minimal inhibitory concentration)
# Description: (§1) Using the appropriate NCCLS procedures, the antibacterial effect of asiatic acid on Haemophilus influenzae (ATCC 10211), E. coli (ATCC 25922), and P. aeruginosa (ATCC 27853) was studied at 64 μg/mL.
# [2] = tested on: P. aeruginosa (ATCC 27853); experiment: Antibacterial effect (MIC), NCCLS procedures; assay type: cell-based; conditions: Pseudomonas aeruginosa, ATCC27853; studied at 64 μg/mL; read-out: MIC (minimal inhibitory concentration)
# Description: as §1
# E. coli (ATCC 25922) = experiment: Antibacterial effect (MIC), NCCLS procedures; assay type: cell-based; conditions: Escherichia coli, ATCC25922; studied at 64 μg/mL; read-out: MIC (minimal inhibitory concentration)
# Description: as §1
# [3] = Bladder concentrations in rats (pharmacokinetic study); conditions: rat, in vivo, po, 50 mg/kg
# Description: Pharmacokinetic studies of asiatic acid and madecassic acid in rats were performed separately. Asiatic acid and madecassic acid were evaluated at 50 mg/kg (oral). Two animals were assigned to the each group. Prior to dosing, a baseline blood sample was taken from each animal. At time zero for asiatic acid and madecassic acid, a single bolus dose in 50% Labrasol (Gattefosse) was given to each animal. Bladders were analyzed at 24 hours. Concentrations of both asiatic acid and madecassic acid in the bladder were approximately 30 μg/g at 24 hours.
# S. mutans 25175 = experiment: Biofilm growth inhibition in 1 mL polycarbonate tubes; assay type: cell-based; conditions: Streptococcus mutans, 40 μg/mL
# [4] = tested on: E. coli clinical strain UT189 against bladder epithelial cells; experiment: Binding to and invasion of bladder epithelial cells by E. coli; assay type: cell-based; conditions: 40 μg/ml, 60 minutes; separate experiments (n=4 to 7)
# Description: The effect of test compounds on bacterial invasion of E. coli clinical strain UT189 was studied as described in Elsinghorst, et al. 1994, Methods Enzymol, 236:405-420; and Martinez et al., 2000, EMBO J., 19:2803-2812. Epithelial bladder cells were grown in plates. Asiatic acid, corosolic acid, or ursolic acid were added at concentrations of 10 μg/ml, 20 μg/ml, or 40 μg/ml to bacteria and epithelial cells for approximately 5, 15, 30, or 60 minutes with approximately 10^7 CFU of E. coli. Binding was assessed at time zero and invasion was assessed at approximately 5, 15, 30, or 60 minutes from completing the mixture of compound, bacteria, and epithelial cells. As a control ethanol was added to cells to a final concentration of 0.1%. The effect of bacterial viability and bacterial adherence during the infection period was evaluated according to the methods described in Martinez et al., 2000, EMBO J., 19:2803-2812.
# E. coli UT189[pCOMGFP] = experiment: Biofilm pods (IBCs) in bladders of infected mice, intravesical compound, confocal microscopy; assay type: in vivo, Escherichia coli; conditions: vs controls
# Description: The procedures in this example has been previously reported by Justice, S. et al. Differentiation and development pathways of uropathogenic Escherichia coli in urinary tract pathogenesis. PNAS, 2004, 101(5), p. 1333-1338. Briefly, E. coli UT189[pCOMGFP] was prepared after retrieval from frozen stocks by inoculating appropriately in LB medium statically for approximately 20 hours. Cells were harvested and suspended in 1 ml of PBS. Cells were diluted appropriately to achieve approximately a 10^8 CFU or 10^7 CFU input into C3H/HeN mice (2 mice per group).
# Mice were deprived of water for approximately two hours. In experiment 1, all mice were anesthetized with 0.15 cc ketamine cocktail. In experiment 2, all mice were anesthetized with isofluorane. In experiment 1, urine was dispelled from the bladders and approximately 40 μg/ml of test compound or an appropriate amount of ethanol as control was introduced into the bladders via catheterization of the urethra using a tubing coated tuberculin syringe. 30 minutes was allowed to elapse. In experiment 2, bladders were not pre-incubated with test compounds. Bladders were then expelled and an inoculum of 10^8 CFU (Experiment 1) or 10^7 CFU (Experiment 2) of E. coli containing 40 μg/ml of test compound or equivalent amount of ethanol as controls were introduced into the bladders as indicated above.
# In experiment 1 five hours elapsed and in experiment 2 six hours elapsed, and then mice were anesthetized and sacrificed appropriately. The bladders were removed, bisected, stretched, and fixed in 3% paraformaldehyde for 1 hour at room temperature. Bladders were then permeabilized in 0.01% Triton/PBS for 10 minutes and counter stained with TOPRO3 (Molecular Probes) for 10 minutes for visualization by confocal microscopy. Bladders were mounted on Prolong antifade (Molecular Probes).
# [5] = tested on: Clinical isolates of P. aeruginosa from cystic fibrosis patients; experiment: Detachment of mature biofilms on peg lids, crystal violet; assay type: cell-based; conditions: 5 ug/ml, approximately 40 hours; eighteen clinical isolates; compared to negative controls
# Description: Clinical isolates of P. aeruginosa from cystic fibrosis patients were passed twice on tryptic soy agar with 5% sheep blood after retrieval from −80° C. and then grown overnight in CAMHB. After dilution of a culture to 0.5 McFarland in broth medium, 100 μl was transferred in triplicate to wells of a flat-bottom 96-well microtiter plate. Bacterial biofilms were formed by immersing the pegs of a modified polystyrene microtiter lid into this biofilm growth plate, followed by incubation at 37° C. for 20 hours with no movement.
# Peg lids were rinsed three times in sterile water, placed onto flat-bottom microtiter plates containing biofilm inhibitors at 5 ug/ml in 100 μl of CAMHB per well and incubated for approximately 40 hours at 37° C.
# Pegs were rinsed, placed in a 0.1% (wt/vol) crystal violet solution for 15 min, rinsed again, and dried for several hours. To solubilize adsorbed crystal violet, pegs were incubated in 95% ethanol (150 μl per well of a flat-bottom microtiter plate) for 15 min. The absorbance was read at 590 nm on a plate reader. The wells containing asiatic acid were compared to negative controls. Negative controls were prepared as stated above but without asiatic acid.
smiles,measurement,setting,value
C[C@H]1[C@H](C)CC[C@]2(C(=O)O)CC[C@]3(C)C(=CC[C@@H]4[C@@]5(C)C[C@@H](O)[C@H](O)[C@@](C)(CO)[C@@H]5CC[C@]43C)[C@H]12 [Asiatic acid],bladder CFU,E. coli UTI89[pCOMGFP]; combination of SMZ/TMP and asiatic acid,2.3×10^4 CFU
same,bladder CFU,E. coli UTI89[pCOMGFP]; single treatment (asiatic acid 25 mg/kg oral twice a day; SMZ/TMP 270/54 micrograms per ml in drinking water),2.9×10^3 CFU
same,MIC,[1],> 64 µg/mL
same,MIC,[2],> 64 µg/mL
same,MIC,E. coli (ATCC 25922),> 64 µg/mL
same,concentration at 24 h,[3],~30000 ng/g
same,inhibition at 40 µg/mL,S. mutans 25175,> 75%
same,reduced invasion of E. coli into bladder epithelial cells,[4],87%
same,reduction in biofilm pods or IBCs in the bladders of mice,"E. coli UT189[pCOMGFP]; experiment 1: C3H/HeN mice, 40 μg/ml intravesical with 30 min pre-incubation, 10^8 CFU, five hours",77%
same,reduction in large biofilm pods or large IBCs in the bladders of mice,"E. coli UT189[pCOMGFP]; experiment 2: C3H/HeN mice, 40 μg/ml in inoculum, no pre-incubation, 10^7 CFU, six hours",~60%
same,average detachment of mature biofilms,[5],approximately 50%
